Patent publication US20240208992A1, “MACROCYCLES AS CFTR MODULATORS” (Idorsia Pharmaceuticals Ltd, priority 2021, published 2024)

Biological target: human F508del-CFTR (Homo sapiens, UniProt P13569, DEL508-508)
Test: F508del-CFTR cell surface expression (corrector activity), DiscoveRx ß-galactosidase complementation chemiluminescence assay in recombinant U2OS cell line;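 further: U2OS cells co-expressing ProLink-tagged F508del-CFTR and a membrane-anchored enzyme acceptor, where more surface CFTR restores β-galactosidase activity measured by chemiluminescence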
Settings: for EC50: EC50, F508del-CFTR cell surface expression; for Emax: U2OS
[1] = U2OS cells, 16h compound incubation, geomean of several measurements
[2] = in relation to the Emax of the corrector lumacaftor (=100%), U2OS cells, 16h compound incubation, arithmetic mean
[3] = U2OS cells, 16h compound incubation, geomean values
[4] = in relation to Emax of corrector lumacaftor (=100%), arithmetic mean values
[5] = U2OS cell line, 16h compound incubation, geomean values
[6] = in relation to the Emax of the corrector lumacaftor (=100%), U2OS cell line, 16h compound incubation, arithmetic mean values

human F508del-CFTR, sequence (P13569 with tags, fused parts or gaps DEL508-508): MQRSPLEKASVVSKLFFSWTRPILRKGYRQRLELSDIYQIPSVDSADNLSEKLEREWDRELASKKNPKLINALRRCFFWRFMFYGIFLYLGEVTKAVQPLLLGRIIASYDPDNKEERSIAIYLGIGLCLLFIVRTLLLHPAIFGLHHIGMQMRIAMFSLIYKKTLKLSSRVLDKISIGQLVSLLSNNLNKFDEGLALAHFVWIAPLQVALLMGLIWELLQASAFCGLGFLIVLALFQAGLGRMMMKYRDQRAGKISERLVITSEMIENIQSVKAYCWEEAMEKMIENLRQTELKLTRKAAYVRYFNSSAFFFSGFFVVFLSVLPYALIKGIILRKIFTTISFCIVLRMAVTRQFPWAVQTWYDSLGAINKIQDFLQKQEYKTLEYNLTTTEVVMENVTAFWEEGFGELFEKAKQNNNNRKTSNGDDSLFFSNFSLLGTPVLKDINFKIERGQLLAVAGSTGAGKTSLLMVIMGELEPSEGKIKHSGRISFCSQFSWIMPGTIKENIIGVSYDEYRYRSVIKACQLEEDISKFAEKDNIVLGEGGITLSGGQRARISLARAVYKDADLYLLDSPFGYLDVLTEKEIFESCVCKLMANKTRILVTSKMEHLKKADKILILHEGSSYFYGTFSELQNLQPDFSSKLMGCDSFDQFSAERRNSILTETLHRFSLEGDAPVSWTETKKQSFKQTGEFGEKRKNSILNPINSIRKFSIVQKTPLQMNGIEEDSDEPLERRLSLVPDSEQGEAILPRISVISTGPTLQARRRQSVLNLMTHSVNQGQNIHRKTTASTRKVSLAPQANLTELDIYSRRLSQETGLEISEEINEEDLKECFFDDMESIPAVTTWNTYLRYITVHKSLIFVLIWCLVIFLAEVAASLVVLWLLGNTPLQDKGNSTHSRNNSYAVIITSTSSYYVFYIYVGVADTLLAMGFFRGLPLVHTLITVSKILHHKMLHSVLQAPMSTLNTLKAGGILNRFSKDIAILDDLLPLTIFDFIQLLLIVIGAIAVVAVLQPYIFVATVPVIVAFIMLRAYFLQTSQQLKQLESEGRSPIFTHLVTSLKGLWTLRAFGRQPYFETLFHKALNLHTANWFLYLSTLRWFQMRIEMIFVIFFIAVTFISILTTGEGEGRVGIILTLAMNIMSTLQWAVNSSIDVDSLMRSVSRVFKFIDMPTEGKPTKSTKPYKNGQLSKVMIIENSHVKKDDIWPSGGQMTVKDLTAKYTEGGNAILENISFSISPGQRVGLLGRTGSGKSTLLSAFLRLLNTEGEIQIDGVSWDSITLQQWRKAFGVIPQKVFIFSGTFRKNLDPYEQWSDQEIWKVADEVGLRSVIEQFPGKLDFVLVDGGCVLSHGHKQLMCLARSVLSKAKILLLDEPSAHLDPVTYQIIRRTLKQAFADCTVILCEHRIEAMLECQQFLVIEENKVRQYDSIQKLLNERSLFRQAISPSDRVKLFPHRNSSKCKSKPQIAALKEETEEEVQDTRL

## COCCn1cc(CCNC(=O)[C@@H]2CC(=O)N(C)[C@@H](CC(C)C)C(=O)N(C)C3(CC3)C(=O)N[C@H](Cc3ccccc3)COc3cnc4ccc(F)cc4c3C(=O)N2)cn1 [Example 830, (3′S,7′S,13′R)-13′-benzyl-20′-fluoro-7′-isobutyl-N-(2-(1-(2-methoxyethyl)-1H-pyrazol-4-yl)ethyl)-6′,9′-dimethyl-1′,5′,8′,11′-tetraoxo-2′,3′,4′,5′,6′,7′,8′,9′,11′,12′,13′,14′-dodecahydro-1′H-spiro[cyclopropane-1,10′-[1]oxa[4,7,10,14]tetraazacycloheptadecino[17,16-c]quinoline]-3′-carboxamide]
[1]
  EC50: 1040 nM
[2]
  Emax: 310%

## Cc1cc(CCNC(=O)[C@@H]2CC(=O)N(C)[C@@H](CC(C)C)C(=O)N(C)[C@@H](Cc3cccc4ccccc34)C(=O)N[C@H](Cc3ccccc3)COc3cnc4ccccc4c3C(=O)N2)on1 [Example 695, (3S,7S,10S,13R)-13-benzyl-7-isobutyl-6,9-dimethyl-N-(2-(3-methylisoxazol-5-yl)ethyl)-10-(naphthalen-1-ylmethyl)-1,5,8,11-tetraoxo-1,2,3,4,5,6,7,8,9,10,11,12,13,14-tetradecahydro-[1]oxa[4,7,10,14]tetraazacycloheptadecino[17,16-c]quinoline-3-carboxamide]
[3]
  EC50: 201 nM
[4]
  Emax: 237%

## Cc1cc(CCNC(=O)[C@@H]2CC(=O)N(C)[C@@H](CC(C)C)C(=O)N3CCCC[C@@H]3C(=O)N[C@H](Cc3ccccc3)COc3cnc4ccccc4c3C(=O)N2)on1 [Example 367, (9S,13S,19aR,22R)-22-benzyl-13-isobutyl-12-methyl-N-(2-(3-methylisoxazol-5-yl)ethyl)-7,11,14,20-tetraoxo-7,8,9,10,11,12,13,14,17,18,19,19a,20,21,22,23-hexadecahydro-16H-pyrido[2′,1′:6,7][1]oxa[4,7,10,14]tetraazacycloheptadecino[17,16-c]quinoline-9-carboxamide]
[5]
  EC50: 249 nM
[6]
  Emax: 321%

## CC(C)C[C@H]1C(=O)N2CCCC[C@@H]2C(=O)N[C@H](Cc2ccccc2)COc2ccc3ncn(C)c3c2C(=O)N[C@H](C(=O)NCCc2cccc(-n3nccn3)c2)CC(=O)N1C (racemic) [Example 28, (8RS,12S,18aR,21R)-N-(3-(2H-1,2,3-triazol-2-yl)phenethyl)-21-benzyl-12-isobutyl-5,11-dimethyl-6,10,13,19-tetraoxo-6,7,8,9,10,11,12,13,16,17,18,18a,19,20,21,22-hexadecahydro-5H,15H-imidazo[4′,5′:5,6]benzo[1,2-p]pyrido[2,1-f][1]oxa[4,7,10,14]tetraazacycloheptadecine-8-carboxamide]
[6]
  Emax: 106%

## Cc1ccc2c(c1)C(=O)N[C@H](C(=O)NCCc1ccc3c(c1)OCO3)CC(=O)N(C)[C@@H](CC(C)C)C(=O)N(C)CC(=O)N[C@H](Cc1ccccc1)CO2 [Example 229, (3R,9S,13S)-N-(2-(benzo[d][1,3]dioxol-5-yl)ethyl)-3-benzyl-9-isobutyl-7,10,17-trimethyl-5,8,11,15-tetraoxo-2,3,4,5,6,7,8,9,10,11,12,13,14,15-tetradecahydrobenzo[p][1]oxa[4,7,10,14]tetraazacycloheptadecine-13-carboxamide]
[5]
  EC50: 279 nM
[6]
  Emax: 117%

## COc1cccc(CCNC(=O)[C@@H]2CC(=O)N(C)[C@@H](CC(C)C)C(=O)N3CCN(C(=O)OC4CCOCC4)C[C@@H]3C(=O)N[C@H](Cc3ccccc3)COc3ccc4ccccc4c3C(=O)N2)c1 [Example 756, Tetrahydro-2H-pyran-4-yl (4aR,7R,18S,22S)-7-benzyl-22-isobutyl-18-((3-methoxyphenethyl)carbamoyl)-21-methyl-5,16,20,23-tetraoxo-1,2,4,4a,5,6,7,8,16,17,18,19,20,21,22,23-hexadecahydro-3H-naphtho[1,2-p]pyrazino[2,1-f][1]oxa[4,7,10,14]tetraazacycloheptadecine-3-carboxylate]
[3]
  EC50: 311 nM
[4]
  Emax: 252%

## CN1C(=O)C[C@@H](C(=O)NCCc2ccc3c(c2)OCO3)NC(=O)c2c(ccc3ccccc23)OC[C@@H](Cc2ccccc2)NC(=O)CN(CC[C@H]2CCCCO2)C(=O)[C@@H]1CC1CCCC1 (racemic) [Example 288, (3RS,7S,13R)-N-(2-(benzo[d][1,3]dioxol-5-yl)ethyl)-13-benzyl-7-(cyclopentylmethyl)-6-methyl-1,5,8,11-tetraoxo-9-(2-((SR)-tetrahydro-2H-pyran-2-yl)ethyl)-1,2,3,4,5,6,7,8,9,10,11,12,13,14-tetradecahydronaphtho[1,2-p][1]oxa[4,7,10,14]tetraazacycloheptadecine-3-carboxamide]
[5]
  EC50: 147 nM
[6]
  Emax: 175%

## COc1nccc2c1C(=O)N[C@H](C(=O)NCCc1cc(C)no1)CC(=O)N(C)[C@@H](CC(C)C)C(=O)N(C)[C@H](CCOC1CCCCC1)C(=O)N[C@H](Cc1ccccc1)CO2 [Example 858, (3R,6R,9S,13S)-3-benzyl-6-(2-(cyclohexyloxy)ethyl)-9-isobutyl-16-methoxy-7,10-dimethyl-N-(2-(3-methylisoxazol-5-yl)ethyl)-5,8,11,15-tetraoxo-2,3,4,5,6,7,8,9,10,11,12,13,14,15-tetradecahydropyrido[3,4-p][1]oxa[4,7,10,14]tetraazacycloheptadecine-13-carboxamide]
[1]
  EC50: 95 nM
[2]
  Emax: 308%

## COc1cccc2c1C(=O)N[C@H](C(=O)NCCc1ccncn1)CC(=O)N(C)[C@@H](CC(C)C)C(=O)N(CCC1CCCCC1)CC(=O)N[C@H](Cc1ccccc1)CO2 [Example 19, (3R,9S,13S)-3-benzyl-7-(2-cyclohexylethyl)-9-isobutyl-16-methoxy-10-methyl-5,8,11,15-tetraoxo-N-(2-(pyrimidin-4-yl)ethyl)-2,3,4,5,6,7,8,9,10,11,12,13,14,15-tetradecahydrobenzo[p][1]oxa[4,7,10,14]tetraazacycloheptadecine-13-carboxamide]
[5]
  EC50: 743 nM
[6]
  Emax: 125%

## CC(C)C[C@H]1C(=O)N(C)CC(=O)N[C@H](Cc2ccccc2)COc2ccc3ccccc3c2C(=O)N[C@H](C(=O)NCCc2ccc3c(c2)OCO3)CC(=O)N1C [Example 269, (3S,7S,13R)-N-(2-(benzo[d][1,3]dioxol-5-yl)ethyl)-13-benzyl-7-isobutyl-6,9-dimethyl-1,5,8,11-tetraoxo-1,2,3,4,5,6,7,8,9,10,11,12,13,14-tetradecahydronaphtho[1,2-p][1]oxa[4,7,10,14]tetraazacycloheptadecine-3-carboxamide]
[5]
  EC50: 350 nM
[6]
  Emax: 251%

## COCCN1CCN2C(=O)[C@H](CC(C)C)N(C)C(=O)C[C@@H](C(=O)NCCc3cccc(OC)c3)NC(=O)c3c(ccc4ccccc34)OC[C@@H](Cc3ccccc3)NC(=O)[C@H]2C1 [Example 354, (4aR,7R,18S,22S)-7-benzyl-22-isobutyl-3-(2-methoxyethyl)-N-(3-methoxyphenethyl)-21-methyl-5,16,20,23-tetraoxo-2,3,4,4a,5,6,7,8,16,17,18,19,20,21,22,23-hexadecahydro-1H-naphtho[1,2-p]pyrazino[2,1-f][1]oxa[4,7,10,14]tetraazacycloheptadecine-18-carboxamide]
[5]
  EC50: 231 nM
[6]
  Emax: 321%

## COc1cccc2c1C(=O)N[C@H](C(=O)NCCc1ccc3c(c1)OCO3)CC(=O)N(C)[C@@H](CC(C)C)C(=O)N(CC[C@H]1CCCCO1)CC(=O)N[C@H](Cc1ccccc1)CO2 (racemic) [Example 304, (3R,9S,13S)-N-(2-(benzo[d][1,3]dioxol-5-yl)ethyl)-3-benzyl-9-isobutyl-16-methoxy-10-methyl-5,8,11,15-tetraoxo-7-(2-((RS)-tetrahydro-2H-pyran-2-yl)ethyl)-2,3,4,5,6,7,8,9,10,11,12,13,14,15-tetradecahydrobenzo[p][1]oxa[4,7,10,14]tetraazacycloheptadecine-13-carboxamide]
[5]
  EC50: 581 nM
[6]
  Emax: 193%

## COc1cccc(CCNC(=O)[C@@H]2CC(=O)N(C)[C@@H](CC(C)C)C(=O)N3CCN(C(=O)CC(C)C)C[C@@H]3C(=O)N[C@H](Cc3ccccc3)COc3ccc4ccccc4c3C(=O)N2)c1 [Example 751, (4aR,7R,18S,22S)-7-benzyl-22-isobutyl-N-(3-methoxyphenethyl)-21-methyl-3-(3-methylbutanoyl)-5,16,20,23-tetraoxo-2,3,4,4a,5,6,7,8,16,17,18,19,20,21,22,23-hexadecahydro-1H-naphtho[1,2-p]pyrazino[2,1-f][1]oxa[4,7,10,14]tetraazacycloheptadecine-18-carboxamide]
[3]
  EC50: 217 nM
[4]
  Emax: 213%

## CC(C)C[C@H]1C(=O)N2CCCC[C@@H]2C(=O)N[C@H](Cc2ccccc2)COc2ccc3ncn(C)c3c2C(=O)N[C@H](C(=O)NCCc2c(F)cccc2F)CC(=O)N1C [Example 485, (8S,12S,18aR,21R)-21-benzyl-N-(2,6-difluorophenethyl)-12-isobutyl-5,11-dimethyl-6,10,13,19-tetraoxo-6,7,8,9,10,11,12,13,16,17,18,18a,19,20,21,22-hexadecahydro-5H,15H-imidazo[4′,5′:5,6]benzo[1,2-p]pyrido[2,1-f][1]oxa[4,7,10,14]tetraazacycloheptadecine-8-carboxamide]
[3]
  EC50: 238 nM
[4]
  Emax: 204%

## COc1cccc(C(F)(F)CNC(=O)[C@@H]2CC(=O)N(C)[C@@H](CC(C)C)C(=O)N(C)C3(CC3)C(=O)N[C@H](Cc3ccccc3)COc3cnc4ccccc4c3C(=O)N2)c1 [Example 175, (3′S,7′S,13′R)-13′-benzyl-N-(2,2-difluoro-2-(3-methoxyphenyl)ethyl)-7′-isobutyl-6′,9′-dimethyl-1′,5′,8′,11′-tetraoxo-2′,3′,4′,5′,6′,7′,8′,9′,11′,12′,13′,14′-dodecahydro-1′H-spiro[cyclopropane-1,10′-[1]oxa[4,7,10,14]tetraazacycloheptadecino[17,16-c]quinoline]-3′-carboxamide]
[5]
  EC50: 229 nM
[6]
  Emax: 179%
